Test results reported in US20210154188A1, “ALK5 INHIBITORS, CONJUGATES, AND USES THEREOF” (SILVERBACK THERAPEUTICS, INC., priority 2018, published 2021).

Tests used:
[1] = biological target: T1, ALK5 (Homo sapiens, UniProt P36897); assay: ALK5 enzyme inhibition assay (33P-ATP filter-binding, Reaction Biology Corp); assay type: biochemical; details: casein substrate 1 mg/mL, 10 uM ATP
T1 construct: purchased Reaction Biology Corp (Malvern, PA)
T1 sequence (P36897 34-503): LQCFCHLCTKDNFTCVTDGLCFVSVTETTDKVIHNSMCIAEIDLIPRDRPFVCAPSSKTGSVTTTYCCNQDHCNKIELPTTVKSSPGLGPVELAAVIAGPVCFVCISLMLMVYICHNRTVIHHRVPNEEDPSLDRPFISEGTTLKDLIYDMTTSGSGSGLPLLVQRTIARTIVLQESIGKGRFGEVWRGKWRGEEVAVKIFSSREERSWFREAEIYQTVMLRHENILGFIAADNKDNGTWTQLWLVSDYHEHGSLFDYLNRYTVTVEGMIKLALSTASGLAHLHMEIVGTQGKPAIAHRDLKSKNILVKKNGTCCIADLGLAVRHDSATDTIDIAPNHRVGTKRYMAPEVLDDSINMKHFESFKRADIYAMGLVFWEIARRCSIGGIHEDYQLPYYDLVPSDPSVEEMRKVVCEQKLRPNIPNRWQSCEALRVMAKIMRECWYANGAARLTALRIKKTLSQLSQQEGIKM
Experimental: ALK5 enzyme inhibition assays were performed by Reaction Biology Corp (Malvern, PA). 1 mg/mL of peptide subtrate (casein) and 10 uM ATP were prepared in a mixture of fresh reaction buffer. The kinase was delivered into the substrate solution which was gently mixed. Compounds in 100% DMSO were added to the kinase reaction mixture by Acoustic technology (Echo550; nanoliter range) and the mixture was incubated for 20 min at room temperature. ^33P-ATP (Specific activity 10 uCi/uL) was added into the reaction mixture to initiate the reaction and the reaction mixture was incubated for 2 hours at room temperature. Radioactivity was detected by filter-binding method and kinase activity data were expressed as the percent remaining kinase activity in test samples compared to vehicle (dimethyl sulfoxide) reactions. IC50 values and curve fits were obtained using Prism (GraphPad Software).

[2] = system: TGFb/SMAD Signaling Pathway SBE reporter cell line; assay: TGFb reporter assay (luciferase); assay type: cell-based; details: 5-6 h preincubation, then TGFb, 18 h, luminescence
Experimental: TGFb/SMAD Signaling Pathway SBE reporter cell line was obtained from BPS Bioscience. Cells were passed/expanded/stored in liquid nitrogen per supplier's instruction with the exception that growth media was changed to DMEM-C with Geneticin (DMEM supplemented with 10% fetal bovine serum, 1× NEAA, 1 mM Pyruvate, 2 mM glutamine, 50 μg/mL penicillin, 50 U/mL streptomycin and 400 ug/mL of Geneticin). The assay media was MEM supplemented with 0.5% fetal bovine serum, 1× NEAA, 1 mM Pyruvate, 50 μg/mL penicillin and 50 U/mL streptomycin.
Reporter cells were harvested from the tissue culture flasks by incubation in small quantity of Versene at room temperature for three to five minutes after the media in the flask was removed and cells rinsed with PBS. Cells were counted and diluted in the assay media at ˜0.8×10^6 cells/mL then 50 uL/well were added to 96-well assay plate. Test samples (at desired concentrations diluted in assay media) were added to assay plate containing the 50 uL/well of cells (or media only), 50 uL per well, and incubated for 5-6 hours at 37° C. in a 5% CO2 humidified incubator. After that time, 15 uL of TGFb diluted to 12.5 ng/mL in the assay media was added to the plate. Controls included TGFb titration (from 25 to 0 ng/mL) without inhibitors, and media only (without cells, inhibitor or TGFb). Plates were incubated at 37° C. in a 5% CO2 humidified incubator for 18 h. Luciferase substrate solution was subsequently added at 75 uL per well, incubated in dark with shaking at room temperature for 10 min, and luminescence was measured using a luminometer.

Structure (SMILES): Cc1cccc(-c2nc(CNC3CC3)[nH]c2-c2ccc3ncnn3c2)n1 [Compound 1.7, N-((5-([1,2,4]triazolo[1,5-a]pyridin-6-yl)-4-(6-methylpyridin-2-yl)-1H-imidazol-2-yl)methyl)-cyclopropanamine]
- IC50 [1]: 1000 to 10000 nM
- IC50 [2]: 100 to 1000 nM

Structure (SMILES): Cc1cccc(-c2nc(CN3CCc4ccccc4C3)[nH]c2-c2ccn3ncnc3c2)n1 [Compound 1.40, 2-((5-([1,2,4]triazolo[1,5-a]pyridin-7-yl)-4-(6-methylpyridin-2-yl)-1H-imidazol-2-yl)methyl)-1,2,3,4-tetrahydroisoquinoline]
- IC50 [1]: 100 to 1000 nM
- IC50 [2]: 100 to 1000 nM
